As a reminder, the IC50 is the point on the concentration scale where inhibition reaches its midpoint. Higher therefore signals lower potency.

Data set [1] addresses T1, proton, potassium-adenosine triphosphatase (H+,K+-ATPase) (Sus scrofa, UniProt P19156).
T1 construct: The obtained microsomal fraction was used as a proton, potassium—adenosine triphosphatase standard product; from tissue; host or cells: swine stomach, gastric mucous membrane microsomal fraction
The experiment in a line: H+,K+-ATPase inhibitory activity test. In kind it is biochemical. To be noted: swine gastric mucous membrane microsomal fraction; pH 6.5, 37° C. The method, then:
According to the method [Biochim. Biophys. Acta, 728, 31 (1983)] of Wallmark et al., a gastric mucous membrane microsomal fraction was prepared from the stomach of swine. First, the stomach was removed, washed with tap water, immersed in 3 mol/L brine, and the surface of the mucous membrane was wiped with a paper towel. The gastric mucous membrane was detached, chopped, and homogenized in a 0.25 mol/L saccharose solution (pH 6.8) containing 1 mmol/L EDTA and 10 mmol/L tris-hydrochloric acid using polytron (Kinematica). The obtained homogenate was centrifuged at 20,000×g for 30 min and the supernatant was centrifuged at 100,000×g for 90 min. The precipitate was suspended in 0.25 mol/L saccharose solution, superimposed on a 0.25 mol/L saccharose solution containing 7.5% Ficoll, and centrifuged at 100,000×g for 5 hr. […]
To 40 μL of a 50 mmol/L HEPES-tris buffer (5 mmol/L magnesium chloride, 10 mmol/L potassium chloride, 10 […], pH=6.5) containing 2.5 μg/mL (based on the protein concentration) of the enzyme standard product was added a test compound (5 μL) dissolved in a 10% aqueous dimethyl sulfoxide solution, and the mixture was incubated at 37° C. for 30 min. […] After allowing to stand at room temperature for 15 min, the resulting reaction product of inorganic phosphorus with malachite green was colorimetrically determined at a wavelength of 610 nm. […]

The test system of data set [2] is Human liver cancer-derived cell line HepG2. The experiment in a line: intracellular ATP content in HepG2 cells (ATPLite). The class given is cell-based. The note with it: HepG2, culture for one day, relative value to control (without drug), n≧3, average. The method, then:
Human liver cancer-derived cell line HepG2 (ATCC No. HB-8065) was passaged using Dulbecco's Modified Eagle medium (DMEM; Invitrogen) containing 10% fetal bovine serum (FBS; TRACE SCIENTIFIC LTD.), 1 mmol/L sodium pyruvate (Invitrogen), 2 mmol/L L-glutamine (Invitrogen), 50 IU/mL penicillin (Invitrogen) and 50 μg/mL streptomycin (Invitrogen) at 5% CO2. 37° C. The test reagent was prepared with DMSO to 10 mM, and further diluted with DMEM medium containing 0.5% FBS, 1 mmol/L sodium pyruvate, 2 mmol/L L-glutamine, 50 IU/mL penicillin and 50 μg/mL streptomycin to a final concentration of DMSO of 0.1%. HepG2 (2×10^4 cells/well) was cultured on a 96 well white plate (Costar) with the test reagent at 5% CO2, 37° C. After culture for one day, the intracellular ATP content was measured using ATPLite™ (PerkinElmer Life Sciences). The results are shown in Table 24 (n≧3, average value±SD) as a relative value (%) to control (without addition of drug) at 30 μM.
(ATP-based viability assays read luminescence as a measure of living cells.)

T1 sequence (P19156 2-1034 limits assumed): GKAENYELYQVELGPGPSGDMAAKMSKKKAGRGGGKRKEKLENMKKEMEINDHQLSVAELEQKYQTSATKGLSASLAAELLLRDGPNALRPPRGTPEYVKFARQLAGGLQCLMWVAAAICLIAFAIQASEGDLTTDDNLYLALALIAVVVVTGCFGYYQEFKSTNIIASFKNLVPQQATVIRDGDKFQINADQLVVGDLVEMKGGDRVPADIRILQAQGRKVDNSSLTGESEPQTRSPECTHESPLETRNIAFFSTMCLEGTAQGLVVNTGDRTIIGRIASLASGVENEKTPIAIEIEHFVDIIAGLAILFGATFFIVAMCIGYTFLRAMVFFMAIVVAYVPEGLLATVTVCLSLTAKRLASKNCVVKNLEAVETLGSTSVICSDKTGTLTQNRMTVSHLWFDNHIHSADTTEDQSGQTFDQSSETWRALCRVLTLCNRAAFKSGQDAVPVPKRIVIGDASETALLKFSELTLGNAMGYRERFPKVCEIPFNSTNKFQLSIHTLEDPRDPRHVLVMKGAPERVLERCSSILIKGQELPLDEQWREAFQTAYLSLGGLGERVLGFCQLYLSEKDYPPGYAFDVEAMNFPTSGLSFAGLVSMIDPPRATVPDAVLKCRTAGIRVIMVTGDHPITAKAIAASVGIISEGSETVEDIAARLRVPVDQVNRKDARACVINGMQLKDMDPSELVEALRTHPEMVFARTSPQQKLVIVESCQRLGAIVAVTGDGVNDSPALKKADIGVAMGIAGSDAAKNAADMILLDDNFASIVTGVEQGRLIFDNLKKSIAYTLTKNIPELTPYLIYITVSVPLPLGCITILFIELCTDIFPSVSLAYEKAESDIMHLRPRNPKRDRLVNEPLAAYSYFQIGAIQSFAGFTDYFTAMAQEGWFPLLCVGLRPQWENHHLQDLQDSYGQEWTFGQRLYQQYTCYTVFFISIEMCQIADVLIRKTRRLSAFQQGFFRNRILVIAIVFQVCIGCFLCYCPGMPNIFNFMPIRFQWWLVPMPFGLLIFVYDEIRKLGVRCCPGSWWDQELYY
T1 sequence (P18434 whole entry partner): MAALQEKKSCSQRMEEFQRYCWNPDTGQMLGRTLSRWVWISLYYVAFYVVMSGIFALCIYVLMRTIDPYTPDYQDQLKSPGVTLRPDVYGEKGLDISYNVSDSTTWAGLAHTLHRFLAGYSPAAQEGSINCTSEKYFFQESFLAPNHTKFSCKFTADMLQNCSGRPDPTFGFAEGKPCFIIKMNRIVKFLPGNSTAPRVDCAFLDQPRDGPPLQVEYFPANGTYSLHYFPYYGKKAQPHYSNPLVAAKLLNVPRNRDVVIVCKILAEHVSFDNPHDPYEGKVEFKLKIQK

With `CNCc1cc(-c2ccc(Cl)cc2F)n(S(=O)(=O)c2cccnc2)c1.Cl.Cl` [Example 34, 1-[5-(4-chloro-2-fluorophenyl)-1-(pyridin-3-ylsulfonyl)-1H-pyrrol-3-yl]-N-methylmethanamine dihydrochloride], the IC50 in data set [1] is 0.0089 µM. Also, the “ATP content (%, 30 μM)” value in data set [2] is recorded as 53.6%.

For the compound `CNCc1cc(-c2ccccc2)n(S(=O)(=O)c2ccc(C)nc2)c1.Cl.Cl` [Example 24, N-methyl-1-{1-[(6-methylpyridin-3-yl)sulfonyl]-5-phenyl-1H-pyrrol-3-yl}methanamine dihydrochloride], in data set [1], the IC50 worked out at 0.034 µM. Moreover, the “ATP content (%, 30 μM)” value in data set [2] stood at 76.5%.

Source of the values: patent publication US8436187B2, “1-heterocyclylsulfonyl, 3-aminomethyl, 5- (hetero-) aryl substituted 1-H-pyrrole derivatives as acid secretion inhibitors” (Takeda Pharmaceutical Company Limited, priority 2005, dated 2013).
